{"source": "patent US11033572B2", "about": "“Molecular adjuvants for enhanced cytosolic delivery of active agents” (Universiteit Gent, priority 2017, dated 2021)", "assay_type_in_all_cases": "cell-based", "key": {"[1]": {"system": "H1299_eGFP cells", "assay": "Side scatter (cellular granularity) by flow cytometry", "procedure": "For silencing experiments, H1299_eGFP cells were seeded in 24 well plates at a density of 35000 cells/well and were allowed to settle overnight. Subsequently, the cells were transfected and treated with small molecular adjuvants as described previously. Note that for every siEGFP or siPLK1 condition an siCTRL sample was included to account for potential off target effects. SiNG-mediated eGFP silencing was determined by flow cytometry. […] The cells were collected, centrifuged during 5 minutes at 300 g, resuspended in 300 μL flow buffer and kept on ice until analysis. For each sample the forward and side scatter as well as the green fluorescent signal were measured for at least 5000 cells."}, "[2]": {"system": "H1299_eGFP cells", "assay": "siNG transfection and sequential adjuvant treatment, eGFP silencing by flow cytometry", "conditions": "for cellular siRNA delivery promoting effect: β2 agonists, 10, 20, 40 μM, 20 h after siNGs; for adjuvant effect on siNG-mediated eGFP silencing: sequential treatment 10, 20 or 40 μM, 20 h, siNGs 2 nM siRNA"}, "[3]": {"system": "H1299_eGFP cells", "assay": "Cell viability following CAD incubation (CellTiter GLO)", "conditions": "for concentration with significant additional cytotoxicity compared to siNGs alone: human, 20 h", "procedure": "The silencing potential of siPLK1-NGs was established through evaluating the cell viability. Hereto, we applied the CellTiter GLO® assay (Promega, Belgium) according to the manufacturer's guidelines. Before initiating the assay, the culture plates and reconstituted assay buffer were placed at room temperature for 30 minutes. Next, the culture medium was replaced by 250 μL fresh cell medium and an equal volume of assay buffer was added. To induce complete cell lysis, the plates were shaken during 2 minutes and the signal was allowed to stabilize the following 10 minutes. 100 μL from each well was subsequently transferred to an opaque 96-well plate, which was measured with a GloMax® 96 Microplate Luminometer (Promega, Belgium). Three biological replicates were performed and data are expressed as the mean cell viability±SEM.\nPlease note that we only applied siCTRL-loaded NGs in this set of experiments. With the interest of evaluating the possible effect of our treatment on cell viability, the CellTiter GLO® assay was performed as described above. Again, three biological replicates were performed and data are expressed as the mean±SEM."}, "[4]": {"system": "H1299_WT cells", "assay": "Phospholipidosis detection with LipidTOX Red", "conditions": "20 h incubation", "procedure": "H1299_WT cells were seeded and allowed to settle overnight as detailed previously. Next, the cells were incubated with a mixture of a 1/1000 dilution of the LipidTOX™ red phospholipidosis detection reagent (Thermo Fisher Scientific, USA) and the desired CAD in complete cell medium. Upon 20 hour incubation, the cells were fixed with 4% PFA and stored at 4° C. covered in Vectashield antifade mounting medium containing DAPI. Imaging occurred with a LSCM and a 100× oil immersion objective. DAPI and the LipidTOX™ red phospholipidosis dye were respectively excited with the 408 nm and 561 nm laser lines and the signal intensity was determined with Image J in minimum 30 cells from 5 images per condition."}, "[5]": {"conditions": "relative to the first four CADs"}}, "note": "Where a name gives a salt, the structure may show the parent alone."}
{"molecule": "CCN(CC)CCO[C@H]1CC[C@@]2(C)C(=CC[C@@H]3[C@@H]2CC[C@]2(C)C(=O)CC[C@@H]32)C1", "note": "[Compound U18666A, U18666A]", "values": [{"measurement": "increase in SSC signal", "setting": "[1]; siNG transfection then 30 μM", "value": 2, "unit": "fold"}, {"measurement": "effect on siNG-mediated gene silencing", "setting": "[2]; 30 μM", "value": "clearly improved siNG-mediated gene silencing"}]}
{"molecule": "COc1ccc(CC(C)NCC(O)c2ccc(O)c(NC=O)c2)cc1", "note": "(stereo not shown) [formoterol, formoterol fumarate hemisulfate]", "values": [{"measurement": "cellular siRNA delivery promoting effect", "setting": "[2]", "value": "do not qualify as siRNA delivery enhancers"}]}
{"molecule": "CC(C)(C)c1ccc(C(O)CCCN2CCC(C(O)(c3ccccc3)c3ccccc3)CC2)cc1", "note": "(stereo not shown) [(56) Terfenadine, Terfenadine]", "values": [{"measurement": "effect on % eGFP expression compared to siNGs alone", "setting": "[2]; 1, 2, 3, 4 or 5 μM", "value": "significantly reduce eGFP expression"}, {"measurement": "concentration required for silencing effect", "setting": "[2]; [5]", "value": "substantially lower concentrations were required"}]}
{"molecule": "CCCCCCCC/C=C\\CCCCCCC(O)C(=O)O", "note": "(stereo not shown) [Compound 2-OHOA, 2-hydroxy oleic acid]", "values": [{"measurement": "effect on gene silencing in combination", "setting": "[2]; 300 μM 2OHOA combined with 10 μM DL", "value": "additive effect"}]}
{"molecule": "OCc1cc(C(O)CNCCCCCCOCCCCc2ccccc2)ccc1O", "note": "(stereo not shown) [(18) Salmeterol, Salmeterol]", "values": [{"measurement": "concentration with significant additional cytotoxicity compared to siNGs alone", "setting": "[3]", "value": "≥ 20", "unit": "µM"}, {"measurement": "adjuvant effect on siNG-mediated eGFP silencing", "setting": "[2]", "value": "significant additional silencing"}, {"measurement": "cellular siRNA delivery promoting effect", "setting": "[2]", "value": "significantly improve cellular siRNA delivery"}]}
{"molecule": "CCc1cc2c(cc1CC)CC(NCC(O)c1ccc(O)c3[nH]c(=O)ccc13)C2", "note": "(stereo not shown) [(57) Indacaterol maleate, Indacaterol maleate]", "values": [{"measurement": "cellular siRNA delivery promoting effect", "setting": "[2]", "value": "significantly improve cellular siRNA delivery"}]}
{"molecule": "COc1ccccc1OCCNCC(O)COc1cccc2[nH]c3ccccc3c12", "note": "(stereo not shown) [(26) Carvedilol, Carvedilol]", "values": [{"measurement": "cytotoxicity versus sum of separate components", "setting": "[3]; 40 μM sequential to siNG", "value": "exceed the sum of the effects from each separate component"}, {"measurement": "cytotoxicity ranking, CAD treatment alone", "setting": "[3]; 10-40 μM, no siNG", "value": "most cytotoxic"}, {"measurement": "adjuvant effect on siNG-mediated eGFP silencing", "setting": "[2]", "value": "significant additional silencing"}]}
{"molecule": "CNCCC=C1c2ccccc2CCc2ccccc21.Cl", "note": "[(55) Nortriptyline hydrochloride, Nortriptyline hydrochloride]", "values": [{"measurement": "concentration with significant additional cytotoxicity compared to siNGs alone", "setting": "[3]", "value": 40, "unit": "µM"}, {"measurement": "adjuvant effect on siNG-mediated eGFP silencing", "setting": "[2]", "value": "significant additional silencing"}]}
{"molecule": "salbutamol hemisulfate", "values": [{"measurement": "cellular siRNA delivery promoting effect", "setting": "[2]", "value": "do not qualify as siRNA delivery enhancers"}]}
{"molecule": "Br.COc1ccc2c(c1)[C@]13CCCC[C@@H]1[C@H](C2)N(C)CC3", "note": "[Dextromethorphan hydrobromide, monohydrate]", "values": [{"measurement": "concentration significantly augmenting the SSC signal", "setting": "[1]; after siNG transfection", "value": "> 80", "unit": "µM"}, {"measurement": "LipidTOX Red phospholipid signal", "setting": "[4]", "value": "only higher doses"}, {"measurement": "higher concentration required to obtain similar silencing effects", "setting": "[2]; [5]", "value": 10, "unit": "fold"}, {"measurement": "adjuvant effect on siNG-mediated eGFP silencing", "setting": "[2]", "value": "does not influence gene silencing"}]}
{"molecule": "CCN(CC)CCCC(C)Nc1ccnc2cc(Cl)ccc12", "note": "(stereo not shown) [Chloroquine, chloroquine]", "values": [{"measurement": "adjuvant effect on siNG-mediated eGFP silencing", "setting": "[2]", "value": "enhances gene silencing to a similar extent as the initial molecules tested"}, {"measurement": "adjuvant effect on siNG-mediated eGFP silencing", "setting": "[2]; listed as CLQ", "value": "improves the silencing potential of the siNGs to a similar extent"}]}
